Measured values as given in publication PMC13195669, “GPR3 Ligands Discovered through Combined Virtual and Conformational Biosensor-Based Screening” (Journal of the American Chemical Society, 2026).
pEC50: −log10 of the molar value.

Assays:
Assay type in all cases: cell-based
GPR3 = biological target: T1, GPR3 (Homo sapiens, UniProt P46089); assay: Gs heterotrimer dissociation biosensor (Gs-CASE) in HEK293A cells cotransfected with GPR3; details: HEK293A transiently transfected with Gs-CASE and GPR3; read-out: EC50 of GPR3-dependent BRET increase, Gs dissociation biosensor
T1 construct: host or cells: HEK293A, transient
Description: To further delineate the pharmacological properties of 33, we evaluated its activity in signaling assays downstream of GPR3. […] We also investigated whether 33 blocks the activity of previously validated GPR3 ligands–the agonist DPI and the inverse agonist AF64394 (Chart )–in a cAMP assay. […] The differential effect between OEA and oleamide may reflect differences in their conformational and/or positional flexibility within the GPR3 binding pocket. This difference is supported by MD simulations of oleamide in GPR3 and by a comparison of oleic acid binding poses in the highly similar pockets of GPR3 and GPR6. , […]
Cells expressing the conformational GPCR biosensors were grown for 24 h (stable cells) or 48 h (transiently transfected cells) in white 96-well plates and washed with 100 µl of HBSS. […] Three baseline BRET reads were recorded and averaged prior to the addition of serial dilutions of ligands or veh icle control and subsequent BRET reads. […] BRE T donor emission was quantified with a 470/80 nm monochromator. […] Experiments were carried out using a CLARIOstar plate reader.
FRET- and BRET-based measurements of cAMP levels and Gs dissociation/reassociation Transfected cells grown in black 96-well plates were washed twice with 100 µl of HBSS 48 h after transfection and incubated with HBSS. […] FRET donor emission was quantified with a 480/10 nm filter. […]

[1] = biological target: T2, cannabinoid receptor 1 (CB1R) (Homo sapiens, UniProt P21554); assay: cAMP GloSensor 22F, agonist-stimulated CB1R; details: preincubation with 100 μM or 10 μM; 10 µM forskolin
T2 construct: expressed in transfected cells; host or cells: HEK293A, transient
Method: (§1) Next, we used the classical cAMP GloSensor technology to assess the target selectivity profile of 33. […] In addition, we tested the effects of 33 on cAMP changes mediated by agonist-stimulated GPCRs phylogenetically close to GPR3 and coupling to Gs or Gi/o proteins.
(§2) BRET-based GPCR conformational sensor experiments
(§3) Cells expressing the conformational GPCR biosensors were grown for 24 h (stable cells) or 48 h (transiently transfected cells) in white 96-well plates and washed with 100 µl of HBSS. After washing, cells were incubated for 2 minutes with a 1/1000 solution of the furimazine stock solution (Promega; cat. no. N1662). Three baseline BRET reads were recorded and averaged prior to the addition of serial dilutions of ligands or veh icle control and subsequent BRET reads. […] BRE T donor emission was quantified with a 470/80 nm monochromator. […] Experiments were carried out using a CLARIOstar plate reader.
(§4) FRET- and BRET-based measurements of cAMP levels and Gs dissociation/reassociation Transfected cells grown in black 96-well plates were washed twice with 100 µl of HBSS 48 h after transfection and incubated with HBSS. […] Three baseline FRET/BRET reads were recorded and averaged prior to the addition of serial dilutions of ligands or vehicle control and sub-sequent FRET/BRET reads. […] FRET donor emission was quantified with a 480/10 nm filter. […]
(§5) Luminescence measurement using the cAMP GloSensor™ 22F […]

S1P receptor 1 (S1PR1) = biological target: T3, S1P receptor 1 (S1PR1) (Homo sapiens, UniProt P21453); assay: cAMP GloSensor 22F, agonist-stimulated S1PR1; details: preincubation with 100 μM or 10 μM; 10 µM forskolin
T3 construct: expressed in transfected cells; host or cells: HEK293A, transient
Method: as §1, §2, §3, §4, §5

T3 sequence (P21453 whole entry, species assumed): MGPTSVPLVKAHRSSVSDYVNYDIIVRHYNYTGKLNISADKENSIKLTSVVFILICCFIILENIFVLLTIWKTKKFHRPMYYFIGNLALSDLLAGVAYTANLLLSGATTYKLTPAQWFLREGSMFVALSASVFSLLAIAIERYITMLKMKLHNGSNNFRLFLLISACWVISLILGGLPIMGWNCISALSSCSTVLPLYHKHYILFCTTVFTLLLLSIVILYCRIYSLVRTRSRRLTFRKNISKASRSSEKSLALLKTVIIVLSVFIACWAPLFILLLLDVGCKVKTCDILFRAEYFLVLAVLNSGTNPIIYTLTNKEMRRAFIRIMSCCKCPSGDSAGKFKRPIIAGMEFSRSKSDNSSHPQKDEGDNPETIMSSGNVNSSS
T2 sequence (P21554 whole entry, species assumed): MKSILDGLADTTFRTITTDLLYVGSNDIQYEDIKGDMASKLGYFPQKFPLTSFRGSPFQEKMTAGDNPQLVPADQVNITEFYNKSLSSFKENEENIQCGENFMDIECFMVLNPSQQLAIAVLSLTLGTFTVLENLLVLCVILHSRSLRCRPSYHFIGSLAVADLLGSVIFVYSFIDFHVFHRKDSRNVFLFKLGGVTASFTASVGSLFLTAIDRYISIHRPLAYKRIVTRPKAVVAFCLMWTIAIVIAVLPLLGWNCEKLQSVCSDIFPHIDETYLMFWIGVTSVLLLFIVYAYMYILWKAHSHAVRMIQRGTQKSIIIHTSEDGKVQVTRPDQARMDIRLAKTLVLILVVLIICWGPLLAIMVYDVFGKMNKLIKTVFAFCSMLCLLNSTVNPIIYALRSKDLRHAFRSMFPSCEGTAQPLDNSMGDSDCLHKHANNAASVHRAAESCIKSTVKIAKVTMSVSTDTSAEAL
T1 sequence (P46089 whole entry): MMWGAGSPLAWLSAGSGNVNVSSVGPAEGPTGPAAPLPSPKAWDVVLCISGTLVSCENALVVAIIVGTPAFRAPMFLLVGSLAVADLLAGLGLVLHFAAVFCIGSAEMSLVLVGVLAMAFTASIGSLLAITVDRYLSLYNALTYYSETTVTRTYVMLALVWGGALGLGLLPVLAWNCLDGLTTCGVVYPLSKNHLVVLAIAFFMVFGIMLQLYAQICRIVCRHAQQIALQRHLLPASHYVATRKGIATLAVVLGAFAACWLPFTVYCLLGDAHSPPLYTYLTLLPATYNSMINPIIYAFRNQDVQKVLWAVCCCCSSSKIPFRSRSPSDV

pEC50 (GPR3): 6.60
SMILES: N=c1n(Cc2ccccc2)c2ccccc2n1CC1CC1 [compound 33]
effect on agonist-induced cAMP change mediated by CB1R [1]: neither 100 μM nor 10 μM 33 significantly altered
effect on agonist-induced cAMP change mediated by S1PR1 (S1P receptor 1 (S1PR1)): neither 100 μM nor 10 μM 33 significantly altered
